# Assay results published in patent US7101882B2, “Morpholin-acetamide derivatives for the treatment of inflammatory diseases” (Glaxo Group Limited, priority 2000, dated 2006).
# Target: eosinophils
# Assay: Eosinophil chemotaxis assay (assay (b))
# Assay type: cell-based, human
# Procedure: (b) Eosinophil Chemotaxis Assay.
# Compounds were evaluated for their inhibitory effect on eosinophil chemotaxis. Eosinophils were purified from human peripheral blood by standard CD16 cell depletion using a Miltenyi cell separation column and a magnetic Super Macs magnet as previously described (Motegi & Kita, 1998; J. Immunology. 161:4340-6). Cells were re-suspended in RPMI 1640/10% FCS solution and incubated with calcein-AM (Molecular Probes) at 37° C. for 30 mins. Following incubation, the eosinophils were centrifuged at 400 g for 5 min and re-suspended in RPMI/FCS at 2.2 million/ml. Cells were then incubated in the presence of increasing concentration of compounds (1 pM to 30 μM) at 37° C. for 30 mins. For control responses cells were incubated with RPMI/FCS only. The agonist eotaxin (either a concentration response curve or for the functional inhibition curves an EC80 concentration) was added to the lower chamber of a 96 well chemotaxis plate (5 μm filter: Receptor Technologies). […] Cells remaining on top of the chemotaxis filter were removed and the number of eosinophils which had migrated were quantified by reading the plate on a fluorescent plate reader. Inhibition curves for the effect of compounds on eosinophil chemotaxis were analysed by fitting the data with a four parameter logistic equation. […]
smiles,measurement,value
"NS(=O)(=O)c1cccc(CC(=O)NC[C@H]2CN(Cc3ccc(Cl)c(Cl)c3)CCO2)c1 [Example 162, 2-[3-(Aminosulfonyl)phenyl]-N-{[(2S)-4-(3,4-dichlorobenzyl)morpholin-2-yl]methyl}acetamide]",CCR-3 Eosinophil Chemotaxis Assay (fpKi),8.2
